Values of other authors as cited in patent publication US20110177137A1, “NOVEL DOSAGE FORM OF PALIPERIDONE AND PROCESS FOR PREPARING THE SAME” (INTAS PHARMACEUTICALS LIMITED, priority 2008, published 2011).

SMILES: Cc1nc2n(c(=O)c1CCN1CCC(c3noc4cc(F)ccc34)CC1)CCCC2O (stereo not drawn) [Paliperidone]
- solubility in 0.1 N HCl (0.1 N HCl): soluble
- solubility in methyl chloride (methyl chloride): partly soluble
- solubility in water (water): insoluble
